Measurements published in article PMC5862592, “CDK8/19 inhibition induces premature G1/S transition and ATR-dependent cell death in prostate cancer cells” (Oncotarget, 2018).
Where two headings read alike, the source gives them in different places.

How the values were obtained:
Experiment in all cases: biochemical
Set-up in all cases: KINOMEscan active site-directed competition binding assay (DiscoveRx), 456 kinases, per cent of control at 300 nM
Conditions in all cases: read-out: Percent of Control (%)
[1] = target: T1, ABL1(F317L)-nonphosphorylated (Homo sapiens, UniProt P00519, F317L)
T1 construct: nonphosphorylated
Method in brief: (§1)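 Compounds at 300 nmol/L screened against 456 kinases by KINOMEscan, a competition binding assay measuring displacement at the kinase active site.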

[2] = target: AKT1 (Homo sapiens, UniProt P31749)
Method in brief: as §1

[3] = target: T2, ARK5 (Homo sapiens, UniProt O60285)
T2 construct: gene NUAK1
Method in brief: as §1

[4] = target: BRSK2 (Homo sapiens, UniProt Q8IWQ3)
Method in brief: as §1

[5] = target: DAPK1 (Homo sapiens, UniProt P53355)
Method in brief: as §1

[6] = target: DAPK2 (Homo sapiens, UniProt Q9UIK4)
Method in brief: as §1

[7] = target: DYRK1B (Homo sapiens, UniProt Q9Y463)
Method in brief: as §1

[8] = target: EPHA5 (Homo sapiens, UniProt P54756)
Method in brief: as §1

[9] = target: ERN1 (Homo sapiens, UniProt O75460)
Method in brief: as §1

[10] = target: FLT1 (Homo sapiens, UniProt P17948)
Method in brief: as §1

[11] = target: FLT3(D835Y) (Homo sapiens, UniProt P36888, D835Y)
Method in brief: as §1

[12] = target: FLT3(R834Q) (Homo sapiens, UniProt P36888, R834Q)
Method in brief: as §1

[13] = target: HIPK1 (Homo sapiens, UniProt Q86Z02)
Method in brief: as §1

[14] = target: INSR (Homo sapiens, UniProt P06213)
Method in brief: as §1

[15] = target: MAP4K4 (Homo sapiens, UniProt O95819)
Method in brief: as §1

[16] = target: T3, MEK5 (Homo sapiens, UniProt Q13163)
T3 construct: gene MAP2K5
Method in brief: as §1

[17] = target: T4, MLK3 (Homo sapiens, UniProt Q16584)
T4 construct: gene MAP3K11
Method in brief: as §1

[18] = target: T5, MST4 (Homo sapiens, UniProt Q9P289)
T5 construct: gene STK26
Method in brief: as §1

[19] = target: NEK1 (Homo sapiens, UniProt Q96PY6)
Method in brief: as §1

[20] = target: NEK9 (Homo sapiens, UniProt Q8TD19)
Method in brief: as §1

[21] = target: T6, PCTK3 (Homo sapiens, UniProt Q07002)
T6 construct: gene CDK18
Method in brief: as §1

[22] = target: STK36 (Homo sapiens, UniProt Q9NRP7)
Method in brief: as §1

FLT1, sequence (P17948 whole entry): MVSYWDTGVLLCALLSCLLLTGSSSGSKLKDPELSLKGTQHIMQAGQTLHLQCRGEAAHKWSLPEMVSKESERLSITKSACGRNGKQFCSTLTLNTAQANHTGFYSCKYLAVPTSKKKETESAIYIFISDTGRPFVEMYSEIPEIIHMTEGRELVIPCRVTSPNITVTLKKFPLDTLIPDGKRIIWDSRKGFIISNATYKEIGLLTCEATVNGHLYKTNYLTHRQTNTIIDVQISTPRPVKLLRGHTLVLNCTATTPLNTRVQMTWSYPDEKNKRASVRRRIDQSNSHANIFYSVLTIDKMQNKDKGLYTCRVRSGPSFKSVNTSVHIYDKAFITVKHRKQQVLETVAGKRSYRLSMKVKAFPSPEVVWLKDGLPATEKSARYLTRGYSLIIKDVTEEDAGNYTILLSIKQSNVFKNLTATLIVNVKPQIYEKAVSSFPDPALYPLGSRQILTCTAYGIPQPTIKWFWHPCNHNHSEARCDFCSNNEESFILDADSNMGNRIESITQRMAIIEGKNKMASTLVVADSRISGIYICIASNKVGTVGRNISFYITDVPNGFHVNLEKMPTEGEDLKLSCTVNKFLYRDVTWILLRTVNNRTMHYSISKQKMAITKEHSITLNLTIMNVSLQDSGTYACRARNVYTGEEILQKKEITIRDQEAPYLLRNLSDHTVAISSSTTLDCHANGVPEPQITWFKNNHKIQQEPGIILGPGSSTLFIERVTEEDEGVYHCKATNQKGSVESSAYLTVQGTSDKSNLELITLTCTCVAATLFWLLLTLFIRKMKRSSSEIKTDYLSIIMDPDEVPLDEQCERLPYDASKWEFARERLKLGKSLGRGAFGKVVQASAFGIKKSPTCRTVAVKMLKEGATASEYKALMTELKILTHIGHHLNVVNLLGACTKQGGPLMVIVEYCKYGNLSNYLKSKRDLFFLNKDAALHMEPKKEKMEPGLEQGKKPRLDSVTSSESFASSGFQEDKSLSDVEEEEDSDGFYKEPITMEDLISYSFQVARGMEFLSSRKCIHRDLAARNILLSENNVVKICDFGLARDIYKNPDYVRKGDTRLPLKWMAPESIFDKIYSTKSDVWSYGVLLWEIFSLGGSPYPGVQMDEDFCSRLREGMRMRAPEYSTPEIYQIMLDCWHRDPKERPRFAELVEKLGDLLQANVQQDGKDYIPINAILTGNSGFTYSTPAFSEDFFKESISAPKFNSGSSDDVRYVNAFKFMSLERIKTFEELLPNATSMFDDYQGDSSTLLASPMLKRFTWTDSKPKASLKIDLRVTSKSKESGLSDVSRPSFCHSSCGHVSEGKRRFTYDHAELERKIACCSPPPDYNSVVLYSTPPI
BRSK2, sequence (Q8IWQ3 whole entry): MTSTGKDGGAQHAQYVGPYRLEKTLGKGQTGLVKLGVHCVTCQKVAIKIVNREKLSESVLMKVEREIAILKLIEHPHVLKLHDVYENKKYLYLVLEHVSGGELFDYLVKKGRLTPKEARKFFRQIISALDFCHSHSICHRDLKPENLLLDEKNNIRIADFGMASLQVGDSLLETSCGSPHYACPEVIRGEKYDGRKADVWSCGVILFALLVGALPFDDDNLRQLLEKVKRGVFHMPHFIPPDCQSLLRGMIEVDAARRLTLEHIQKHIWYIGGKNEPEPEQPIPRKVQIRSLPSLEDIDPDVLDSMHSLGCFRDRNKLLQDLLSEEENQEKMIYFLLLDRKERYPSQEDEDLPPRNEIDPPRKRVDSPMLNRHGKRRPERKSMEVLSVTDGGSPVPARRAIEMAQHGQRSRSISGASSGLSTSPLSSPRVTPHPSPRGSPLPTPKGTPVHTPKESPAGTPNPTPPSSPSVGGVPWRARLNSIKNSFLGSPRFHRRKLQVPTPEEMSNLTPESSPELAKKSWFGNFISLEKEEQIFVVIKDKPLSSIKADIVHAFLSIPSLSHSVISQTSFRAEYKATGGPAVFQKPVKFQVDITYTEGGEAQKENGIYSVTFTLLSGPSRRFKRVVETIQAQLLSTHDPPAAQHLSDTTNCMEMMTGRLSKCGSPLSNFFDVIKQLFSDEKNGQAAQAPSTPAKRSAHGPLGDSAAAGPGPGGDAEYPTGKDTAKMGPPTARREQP
STK36, sequence (Q9NRP7 whole entry): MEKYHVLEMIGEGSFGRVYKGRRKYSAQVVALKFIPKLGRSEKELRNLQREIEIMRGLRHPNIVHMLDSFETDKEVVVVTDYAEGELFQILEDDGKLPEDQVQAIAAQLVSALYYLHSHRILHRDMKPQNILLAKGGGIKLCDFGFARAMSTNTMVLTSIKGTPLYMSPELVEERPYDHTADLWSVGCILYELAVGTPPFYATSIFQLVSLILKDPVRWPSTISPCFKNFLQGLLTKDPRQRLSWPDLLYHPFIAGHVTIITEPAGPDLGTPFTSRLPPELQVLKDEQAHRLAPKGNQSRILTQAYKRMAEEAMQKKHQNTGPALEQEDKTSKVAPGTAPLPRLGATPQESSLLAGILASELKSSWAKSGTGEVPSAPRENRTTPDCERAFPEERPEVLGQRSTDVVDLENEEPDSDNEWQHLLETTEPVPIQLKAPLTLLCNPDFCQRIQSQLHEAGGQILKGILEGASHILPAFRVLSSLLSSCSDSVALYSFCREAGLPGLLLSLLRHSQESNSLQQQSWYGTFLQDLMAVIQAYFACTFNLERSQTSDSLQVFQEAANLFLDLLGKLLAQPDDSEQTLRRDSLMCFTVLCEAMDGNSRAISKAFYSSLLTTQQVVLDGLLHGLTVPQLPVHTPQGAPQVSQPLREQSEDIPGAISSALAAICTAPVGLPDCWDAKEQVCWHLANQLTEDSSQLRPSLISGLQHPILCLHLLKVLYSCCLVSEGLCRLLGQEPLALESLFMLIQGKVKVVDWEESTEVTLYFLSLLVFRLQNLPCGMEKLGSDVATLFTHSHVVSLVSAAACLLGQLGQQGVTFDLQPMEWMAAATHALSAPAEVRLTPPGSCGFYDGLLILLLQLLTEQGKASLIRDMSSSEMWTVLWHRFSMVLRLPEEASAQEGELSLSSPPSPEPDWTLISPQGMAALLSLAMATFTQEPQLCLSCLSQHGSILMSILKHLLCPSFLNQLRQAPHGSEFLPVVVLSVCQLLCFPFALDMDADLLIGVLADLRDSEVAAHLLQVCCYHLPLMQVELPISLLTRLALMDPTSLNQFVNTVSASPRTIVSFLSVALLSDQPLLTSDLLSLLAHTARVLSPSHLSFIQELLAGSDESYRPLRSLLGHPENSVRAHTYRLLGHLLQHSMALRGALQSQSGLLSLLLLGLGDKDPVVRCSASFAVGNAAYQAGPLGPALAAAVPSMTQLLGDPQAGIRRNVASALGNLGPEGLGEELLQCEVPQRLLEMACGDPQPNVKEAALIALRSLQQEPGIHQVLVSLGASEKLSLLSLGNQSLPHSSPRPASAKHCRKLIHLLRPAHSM
ERN1, sequence (O75460 whole entry): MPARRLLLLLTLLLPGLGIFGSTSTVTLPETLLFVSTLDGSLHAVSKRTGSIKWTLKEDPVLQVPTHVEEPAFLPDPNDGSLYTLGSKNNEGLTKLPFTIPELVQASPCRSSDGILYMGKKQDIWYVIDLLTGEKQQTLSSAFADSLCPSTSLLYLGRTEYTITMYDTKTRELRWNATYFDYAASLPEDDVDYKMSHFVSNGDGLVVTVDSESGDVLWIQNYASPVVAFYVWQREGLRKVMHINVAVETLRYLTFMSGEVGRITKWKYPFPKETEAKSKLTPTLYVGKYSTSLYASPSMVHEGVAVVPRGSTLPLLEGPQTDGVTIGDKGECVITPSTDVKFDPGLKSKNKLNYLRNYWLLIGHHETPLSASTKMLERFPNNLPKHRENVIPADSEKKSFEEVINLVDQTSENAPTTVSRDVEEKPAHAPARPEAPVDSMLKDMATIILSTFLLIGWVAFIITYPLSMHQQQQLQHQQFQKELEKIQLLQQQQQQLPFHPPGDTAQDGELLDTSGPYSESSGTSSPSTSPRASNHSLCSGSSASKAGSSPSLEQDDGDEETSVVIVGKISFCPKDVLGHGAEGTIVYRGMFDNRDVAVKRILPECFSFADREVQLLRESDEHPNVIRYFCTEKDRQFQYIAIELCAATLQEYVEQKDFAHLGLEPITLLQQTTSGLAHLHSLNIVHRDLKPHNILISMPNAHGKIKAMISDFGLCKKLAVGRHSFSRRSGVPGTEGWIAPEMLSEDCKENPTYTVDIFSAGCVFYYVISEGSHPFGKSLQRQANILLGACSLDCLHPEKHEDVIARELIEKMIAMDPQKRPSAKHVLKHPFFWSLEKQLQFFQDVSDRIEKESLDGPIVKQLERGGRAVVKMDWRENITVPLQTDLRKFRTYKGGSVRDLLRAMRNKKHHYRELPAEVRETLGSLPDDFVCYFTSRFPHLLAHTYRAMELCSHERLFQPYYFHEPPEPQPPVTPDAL
DYRK1B, sequence (Q9Y463 whole entry): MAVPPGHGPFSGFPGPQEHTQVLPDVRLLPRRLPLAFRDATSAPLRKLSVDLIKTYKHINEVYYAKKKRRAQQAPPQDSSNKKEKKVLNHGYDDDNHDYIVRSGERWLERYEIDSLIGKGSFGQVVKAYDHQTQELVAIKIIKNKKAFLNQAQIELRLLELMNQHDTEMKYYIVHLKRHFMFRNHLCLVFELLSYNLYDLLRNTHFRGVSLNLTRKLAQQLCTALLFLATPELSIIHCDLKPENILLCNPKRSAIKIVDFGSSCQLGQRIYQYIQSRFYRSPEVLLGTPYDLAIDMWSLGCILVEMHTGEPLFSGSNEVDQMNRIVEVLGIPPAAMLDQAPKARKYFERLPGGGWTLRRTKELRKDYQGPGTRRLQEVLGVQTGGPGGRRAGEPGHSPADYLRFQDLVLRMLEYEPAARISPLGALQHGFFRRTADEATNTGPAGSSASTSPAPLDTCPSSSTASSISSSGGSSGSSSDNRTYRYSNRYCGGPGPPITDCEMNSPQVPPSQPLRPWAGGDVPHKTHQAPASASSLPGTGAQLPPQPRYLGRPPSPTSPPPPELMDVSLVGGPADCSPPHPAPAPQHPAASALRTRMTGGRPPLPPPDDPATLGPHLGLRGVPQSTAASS

**Q.** Which results are given for `O=C(/C=C/c1cnccc1-c1ccc(F)cc1)Nc1ccc(CCc2nnco2)cc1` [T-418, (2E)-3-(4-(4-fluorophenyl)pyridin-3-yl)-N-(4-(2-(1,3,4-oxadiazol-2-yl)ethyl)phenyl)acrylamide]?
**A.** remaining binding at 0.3 µM ([1]; sheet T-418): 100%; remaining binding at 0.3 µM ([2]; sheet T-418): 85%; remaining binding at 0.3 µM ([3]; sheet T-418): 100%; remaining binding at 0.3 µM ([4]; sheet T-418): 100%; remaining binding at 0.3 µM ([5]; sheet T-418): 100%; remaining binding at 0.3 µM ([6]; sheet T-418): 87%; remaining binding at 0.3 µM ([7]; sheet T-418): 67%; remaining binding at 0.3 µM ([8]; sheet T-418): 96%; remaining binding at 0.3 µM ([9]; sheet T-418): 100%; remaining binding at 0.3 µM ([10]; sheet T-418): 100%; remaining binding at 0.3 µM ([11]; sheet T-418): 100%; remaining binding at 0.3 µM ([12]; sheet T-418): 88%; remaining binding at 0.3 µM ([13]; sheet T-418): 75%; remaining binding at 0.3 µM ([14]; sheet T-418): 69%; remaining binding at 0.3 µM ([15]; sheet T-418): 89%; remaining binding at 0.3 µM ([16]; sheet T-418): 100%; remaining binding at 0.3 µM ([17]; sheet T-418): 94%; remaining binding at 0.3 µM ([18]; sheet T-418): 63%; remaining binding at 0.3 µM ([19]; sheet T-418): 90%; remaining binding at 0.3 µM ([20]; sheet T-418): 100%; remaining binding at 0.3 µM ([21]; sheet T-418): 100%; remaining binding at 0.3 µM ([22]; sheet T-418): 100%

**Q.** With `Cc1ncccc1Oc1sc(C(N)=O)c2c1-c1c(cnn1C)CC2` [T-474, 1-methyl-8-((2-methylpyridin-3-yl)oxy)-4,5-dihydro-1H-thieno[3,4-g]indazole-6-carboxamide] as the molecule, how does the remaining binding at 0.3 µM [1] read?
**A.** 100%

**Q.** What about the remaining binding at 0.3 µM [2] of the same molecule?
**A.** 98%

**Q.** What about the remaining binding at 0.3 µM [3] of the same molecule?
**A.** 100%

**Q.** And the remaining binding at 0.3 µM [4]?
**A.** 87%

**Q.** And the remaining binding at 0.3 µM [5]?
**A.** 100%

**Q.** And the remaining binding at 0.3 µM [6]?
**A.** 100%

**Q.** What about the remaining binding at 0.3 µM [7] of the same molecule?
**A.** 24%

**Q.** And the remaining binding at 0.3 µM [8]?
**A.** 98%

**Q.** What about the remaining binding at 0.3 µM [9] of the same molecule?
**A.** 89%

**Q.** And the remaining binding at 0.3 µM [10]?
**A.** 100%

**Q.** And the remaining binding at 0.3 µM [11]?
**A.** 60%

**Q.** What about the remaining binding at 0.3 µM [12] of the same molecule?
**A.** 91%

**Q.** What about the remaining binding at 0.3 µM [13] of the same molecule?
**A.** 81%

**Q.** And the remaining binding at 0.3 µM [14]?
**A.** 66%

**Q.** What about the remaining binding at 0.3 µM [15] of the same molecule?
**A.** 83%

**Q.** And the remaining binding at 0.3 µM [16]?
**A.** 100%

**Q.** What about the remaining binding at 0.3 µM [17] of the same molecule?
**A.** 97%

**Q.** And the remaining binding at 0.3 µM [18]?
**A.** 64%

**Q.** And the remaining binding at 0.3 µM [19]?
**A.** 95%

**Q.** What about the remaining binding at 0.3 µM [20] of the same molecule?
**A.** 100%

**Q.** And the remaining binding at 0.3 µM [21]?
**A.** 100%

**Q.** And the remaining binding at 0.3 µM [22]?
**A.** 100%
